Reference: ChEMBL document CHEMBL4261593, “Synthesis and antibacterial activity of novel 3-O-arylalkylcarbamoyl-3-O-descladinosyl-9-O-(2-chlorobenzyl)oxime clarithromycin derivatives” (2018)
In brackets after ≈: the same amount, converted by molar mass.

What was measured:
Assay type in all cases: functional
Staphylococcus aureus [1] = experiment: Antibacterial activity against erythromycin-susceptible Staphylococcus aureus ATCC 25923 after 24 hrs by broth dilution assay; settings: ATCC 25923, 24 h
Streptococcus pyogenes [2] = experiment: Antibacterial activity against erythromycin-susceptible Streptococcus pyogenes 1 after 24 hrs by broth dilution assay; settings: Streptococcus pyogenes, 1, 24 h
Staphylococcus aureus [3] = experiment: Antibacterial activity against penicillin-resistant Staphylococcus aureus ATCC 31007 after 24 hrs by broth dilution assay; settings: ATCC 31007, 24 h
Streptococcus pneumoniae [4] = experiment: Antibacterial activity against erythromycin-resistant Streptococcus pneumoniae A22072 expressing mefA gene after 24 hrs by broth dilution assay; settings: A22072, 24 h
Bacillus subtilis = experiment: Antibacterial activity against penicillin-susceptible Bacillus subtilis ATCC 9372 after 24 hrs by broth dilution assay; settings: ATCC 9372, 24 h
Streptococcus pyogenes [5] = experiment: Antibacterial activity against erythromycin-resistant Streptococcus pyogenes 2 after 24 hrs by broth dilution assay; settings: Streptococcus pyogenes, 2, 24 h
Escherichia coli = experiment: Antibacterial activity against penicillin-susceptible Escherichia coli ATCC 25922 after 24 hrs by broth dilution assay; settings: ATCC 25922, 24 h
Staphylococcus aureus [6] = experiment: Antibacterial activity against […] Staphylococcus aureus ATCC 29213 after 24 hrs by broth dilution assay; settings: ATCC 29213, 24 h
Streptococcus pneumoniae [7] = experiment: Antibacterial activity against erythromycin-resistant Streptococcus pneumoniae AB11 expressing ermB and mefA genes after 24 hrs by broth dilution assay; settings: AB11, 24 h
Pseudomonas aeruginosa = experiment: Antibacterial activity against penicillin-susceptible Pseudomonas aeruginosa ATCC 27853 after 24 hrs by broth dilution assay; settings: ATCC 27853, 24 h
Streptococcus pneumoniae [8] = experiment: Antibacterial activity against erythromycin-resistant Streptococcus pneumoniae B1 expressing ermB gene after 24 hrs by broth dilution assay; settings: B1, 24 h

| SMILES | MIC (Staphylococcus aureus [1]) [µg/mL] | MIC (Streptococcus pyogenes [2]) [µg/mL] | MIC (Staphylococcus aureus [3]) [µg/mL] | MIC (Streptococcus pneumoniae [4]) [µg/mL] | MIC (Bacillus subtilis) [µg/mL] | MIC (Streptococcus pyogenes [5]) [µg/mL] | MIC (Escherichia coli) [µg/mL] | MIC (Staphylococcus aureus [6]) [µg/mL] | MIC (Streptococcus pneumoniae [7]) [µg/mL] | MIC (Pseudomonas aeruginosa) [µg/mL] | MIC (Streptococcus pneumoniae [8]) [µg/mL] |
| --- | --- | --- | --- | --- | --- | --- | --- | --- | --- | --- | --- |
| CC[C@H]1OC(=O)[C@H](C)[C@@H](OC(=O)NC2CCCCC2)[C@H](C)[C@@H](O[C@@H]2O[C@H](C)C[C@H](N(C)C)[C@H]2O)[C@](C)(OC)C[C@@H](C)/C(=N/OCc2ccccc2Cl)[C@H](C)[C@@H](O)[C@]1(C)O | 16 (≈ 18.7 µM) | 2 (≈ 2.34 µM) | 8 (≈ 9.36 µM) | 1 (≈ 1.17 µM) | 4 (≈ 4.68 µM) | 16 (≈ 18.7 µM) | 128 (≈ 150 µM) | 128 (≈ 150 µM) | 128 (≈ 150 µM) | 128 (≈ 150 µM) | 128 (≈ 150 µM) |
| CC[C@H]1OC(=O)[C@H](C)[C@@H](OC(=O)NCCc2ccccc2Cl)[C@H](C)[C@@H](O[C@@H]2O[C@H](C)C[C@H](N(C)C)[C@H]2O)[C@](C)(OC)C[C@@H](C)/C(=N/OCc2ccccc2Cl)[C@H](C)[C@@H](O)[C@]1(C)O | 8 (≈ 8.78 µM) | 2 (≈ 2.2 µM) | 8 (≈ 8.78 µM) | 1 (≈ 1.1 µM) | 2 (≈ 2.2 µM) | 16 (≈ 17.6 µM) | 128 (≈ 141 µM) | 128 (≈ 141 µM) | 128 (≈ 141 µM) | 128 (≈ 141 µM) | 128 (≈ 141 µM) |
| CC[C@H]1OC(=O)[C@H](C)[C@@H](OC(=O)NCCc2ccc(F)cc2)[C@H](C)[C@@H](O[C@@H]2O[C@H](C)C[C@H](N(C)C)[C@H]2O)[C@](C)(OC)C[C@@H](C)/C(=N/OCc2ccccc2Cl)[C@H](C)[C@@H](O)[C@]1(C)O | 4 (≈ 4.47 µM) | 2 (≈ 2.24 µM) | 4 (≈ 4.47 µM) | 1 (≈ 1.12 µM) | 2 (≈ 2.24 µM) | 8 (≈ 8.94 µM) | 128 (≈ 143 µM) | 128 (≈ 143 µM) | 128 (≈ 143 µM) | 128 (≈ 143 µM) | 128 (≈ 143 µM) |
| CC[C@H]1OC(=O)[C@H](C)[C@@H](OC(=O)NCc2ccccc2Cl)[C@H](C)[C@@H](O[C@@H]2O[C@H](C)C[C@H](N(C)C)[C@H]2O)[C@](C)(OC)C[C@@H](C)/C(=N/OCc2ccccc2Cl)[C@H](C)[C@@H](O)[C@]1(C)O | 8 (≈ 8.92 µM) | 4 (≈ 4.46 µM) | 4 (≈ 4.46 µM) | 1 (≈ 1.11 µM) | 2 (≈ 2.23 µM) | 16 (≈ 17.8 µM) | 128 (≈ 143 µM) | 128 (≈ 143 µM) | 128 (≈ 143 µM) | 128 (≈ 143 µM) | 128 (≈ 143 µM) |
| CC[C@H]1OC(=O)[C@H](C)[C@@H](OC(=O)NCCc2ccccc2)[C@H](C)[C@@H](O[C@@H]2O[C@H](C)C[C@H](N(C)C)[C@H]2O)[C@](C)(OC)C[C@@H](C)/C(=N/OCc2ccccc2Cl)[C@H](C)[C@@H](O)[C@]1(C)O | 16 (≈ 18.3 µM) | 8 (≈ 9.13 µM) | 8 (≈ 9.13 µM) | 2 (≈ 2.28 µM) | 8 (≈ 9.13 µM) | 16 (≈ 18.3 µM) | 128 (≈ 146 µM) | 128 (≈ 146 µM) | 128 (≈ 146 µM) | 128 (≈ 146 µM) | 128 (≈ 146 µM) |
| CC[C@H]1OC(=O)[C@H](C)[C@@H](OC(=O)NCCc2cccc(OC)c2)[C@H](C)[C@@H](O[C@@H]2O[C@H](C)C[C@H](N(C)C)[C@H]2O)[C@](C)(OC)C[C@@H](C)/C(=N/OCc2ccccc2Cl)[C@H](C)[C@@H](O)[C@]1(C)O | 8 (≈ 8.82 µM) | 2 (≈ 2.21 µM) | 4 (≈ 4.41 µM) | 1 (≈ 1.1 µM) | 4 (≈ 4.41 µM) | 8 (≈ 8.82 µM) | 128 (≈ 141 µM) | 128 (≈ 141 µM) | 128 (≈ 141 µM) | 128 (≈ 141 µM) | 128 (≈ 141 µM) |
| CC[C@H]1OC(=O)[C@H](C)[C@@H](OC(=O)NCc2ccc(F)cc2)[C@H](C)[C@@H](O[C@@H]2O[C@H](C)C[C@H](N(C)C)[C@H]2O)[C@](C)(OC)C[C@@H](C)/C(=N/OCc2ccccc2Cl)[C@H](C)[C@@H](O)[C@]1(C)O | 4 (≈ 4.54 µM) | 2 (≈ 2.27 µM) | 4 (≈ 4.54 µM) | 1 (≈ 1.14 µM) | 2 (≈ 2.27 µM) | 8 (≈ 9.09 µM) | 128 (≈ 145 µM) | 128 (≈ 145 µM) | 128 (≈ 145 µM) | 128 (≈ 145 µM) | 128 (≈ 145 µM) |
| CCNC(=O)O[C@H]1[C@H](C)[C@@H](O[C@@H]2O[C@H](C)C[C@H](N(C)C)[C@H]2O)[C@](C)(OC)C[C@@H](C)/C(=N/OCc2ccccc2Cl)[C@H](C)[C@@H](O)[C@](C)(O)[C@@H](CC)OC(=O)[C@@H]1C | 16 (≈ 20 µM) | 2 (≈ 2.5 µM) | 16 (≈ 20 µM) | 1 (≈ 1.25 µM) | 8 (≈ 9.99 µM) | 32 (≈ 40 µM) | 128 (≈ 160 µM) | 128 (≈ 160 µM) | 128 (≈ 160 µM) | 128 (≈ 160 µM) | 128 (≈ 160 µM) |
| CC[C@H]1OC(=O)[C@H](C)[C@@H](OC(=O)NCc2ccc(C)cc2)[C@H](C)[C@@H](O[C@@H]2O[C@H](C)C[C@H](N(C)C)[C@H]2O)[C@](C)(OC)C[C@@H](C)/C(=N/OCc2ccccc2Cl)[C@H](C)[C@@H](O)[C@]1(C)O | 8 (≈ 9.13 µM) | 2 (≈ 2.28 µM) | 4 (≈ 4.56 µM) | 1 (≈ 1.14 µM) | 2 (≈ 2.28 µM) | 16 (≈ 18.3 µM) | 128 (≈ 146 µM) | 128 (≈ 146 µM) | 128 (≈ 146 µM) | 128 (≈ 146 µM) | 128 (≈ 146 µM) |
